Measured values taken from patent US20120077876A1, “Method For Improved Bioactivation Of Pharmaceuticals” (Dritte Patentportfolio Beteiligungsgesellschaft Mbh & Co. KG, priority 2009, published 2012).
One block for each molecule: values may come before it.

Tests used:
[1] = tested on: cytochrome P450 (CYP450); test: CYP450 substrate study, human liver microsomes and 9000 g supernatant; type: in vitro ADME; conditions: human liver enzyme sources, pH 6.0 and pH 7.4, NADH or NADPH, 60 or 180 minutes
Protocol: To obtain human microsomes, human liver tissue from cancer patients of the surgical department of the University Clinic of Christian-Albrecht University was obtained who had to undergo hemihepatectomy.
The liver tissue pieces were flash-frozen in a saccharose-containing phosphate buffer (10 mM K2HPO4, 10 mM KH2PO4, 250 mM saccharose, 1 mM Na2 EDTA, pH 7.4, 4° C.). As soon as a sufficient quantity of organ parts (>3) was available, the corresponding pieces were thawed and pooled so as to compensate for differences due to interindividual variations. The tissue pieces were cut into smaller parts at 4° C., washed several times with buffer solution (without EDTA), and processed into a suspension using a homogenizer. The microsomes and 9000 g supernatant were further obtained from this suspension by differential ultracentrifugation. For storage, the resulting preparations were aliquotted and frozen at −80° C.
A typical incubation bath of 500 μl (total volume) contained 0.3 mg protein (pork or human liver enzyme source), 0.1 mM (or 1 mM) test compound in 100 mM phosphate buffer (pH 6.0 or pH 7.4) and 1 mM NADH (or NADPH). The incubation was started after a 5-minute pre-incubation of the enzyme and test compound in buffer, adding NADH (or NADPH), and the product was shaken for 60 minutes or 180 minutes at 37° C. in the shaking water batch. […]

[2] = molecular target: T1, peptidylglycine α-amidating monooxygenase (PAM) (Rattus norvegicus, UniProt P14925); test: PAM assay with colorimetric determination of glyoxylate formation; type: biochemical; conditions: for formation of glyoxylate as the cleavage product of the PAM catalysis: colorimetric assay, substrate 0.1 mM or 1 mM, pH 6.0 and pH 7.4, 37° C.
T1 construct: purchased Unigene Laboratories, Inc. (New Jersey, USA)
T1 sequence (P14925 36-871 isoform P14925-2 limits assumed): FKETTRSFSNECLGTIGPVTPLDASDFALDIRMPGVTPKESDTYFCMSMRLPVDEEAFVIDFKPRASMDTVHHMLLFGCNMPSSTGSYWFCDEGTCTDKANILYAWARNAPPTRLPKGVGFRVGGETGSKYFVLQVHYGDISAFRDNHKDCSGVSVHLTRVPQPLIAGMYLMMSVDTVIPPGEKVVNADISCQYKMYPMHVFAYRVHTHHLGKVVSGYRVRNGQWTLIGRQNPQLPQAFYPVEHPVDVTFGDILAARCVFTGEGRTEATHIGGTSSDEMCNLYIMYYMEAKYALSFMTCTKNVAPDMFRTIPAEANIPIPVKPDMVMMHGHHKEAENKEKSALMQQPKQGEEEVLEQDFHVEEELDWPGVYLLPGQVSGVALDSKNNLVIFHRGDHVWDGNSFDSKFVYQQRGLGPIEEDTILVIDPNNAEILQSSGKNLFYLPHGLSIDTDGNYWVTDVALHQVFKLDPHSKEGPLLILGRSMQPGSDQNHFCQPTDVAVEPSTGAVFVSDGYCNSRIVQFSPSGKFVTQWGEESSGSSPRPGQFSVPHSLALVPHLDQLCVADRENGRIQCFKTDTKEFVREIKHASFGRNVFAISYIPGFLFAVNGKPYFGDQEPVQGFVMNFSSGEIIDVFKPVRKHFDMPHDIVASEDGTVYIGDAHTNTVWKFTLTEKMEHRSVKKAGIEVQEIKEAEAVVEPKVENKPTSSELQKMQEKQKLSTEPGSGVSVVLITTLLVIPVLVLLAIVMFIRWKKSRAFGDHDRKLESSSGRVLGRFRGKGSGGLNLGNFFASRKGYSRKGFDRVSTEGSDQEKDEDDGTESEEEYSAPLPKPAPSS
Protocol: (§1) The recombinant peptidylglycine α-amidating monooxygenase (PAM, rat, EC 1.14.17.3) that was used was provided by Unigene Laboratories, Inc. (New jersey, USA) (specific activity=5.8 10^6 U/mg protein); bovine liver catalase (EC 1.11.1.6), specific activity=12600 U/mg solid (Aldrich).
(§2) A typical incubation batch of 300 μl (total volume) contained 25000 U/ml peptidylglycine α-amidating monooxygenase (PAM, company: Unigene Laboratories), 250 U/ml catalase, 1 μM copper(II) (employed as acetate/monohydrate), 2 mM sodium ascorbate, 5 mM potassium iodide and the respective substrate in 0.1 mM or 1 mM concentration, in buffers having different pH values. The buffer system used was 30 mM MES for the incubation at pH 6.0 and 50 mM HEPES for the incubation at pH 7.4. The pH value was adjusted in each case with diluted sodium hydroxide. The incubation was carried out at 37° C. in the shaking water bath for 60 minutes, 100 μl was withdrawn, and the reaction was stopped with 50 μl 10% TFA(aq)/acetonitrile (2:3). The remaining batch was incubated for another 180 minutes at 37° C. and stopped with 100 μl 10% TFA(aq)/acetonitrile (2:3).
(§3) The stopped samples were shaken for 5 minutes (vortexer) and frozen at −80° C. To analyze the samples, they were thawed, shaken for 5 minutes, and the precipitated protein was centrifuged at 10000 rpm. The supernatant was used for the colorimetric glyoxylate determination and/or HPLC measurement.
200 μl of the incubation batch that was freed of protein was mixed with 20 μl of a phenylhydrazine solution (20 mg in 2 ml aqua bidest.) and shaken for 5 minutes in the shaking water bath at 37° C. […] The batch was allowed to rest for 15 minutes at room temperature and 200 μl was withdrawn for the measurement using a Plate Reader (Cary 50 UV-Vis photometer, 520 nm).
For a 5-point calibration, glyoxalic acid in concentrations of 2, 5, 10, 50 and 100 μM in a 2:1 mixture of assay buffer (pH 6.0):10% TFA(aq)/acetonitrile (2:3) was measured as described above. […]

[3] = tested on: cytochrome P450 (CYP450); test: CYP450 substrate study, porcine liver microsomes and 9000 g supernatant; type: in vitro ADME; conditions: pork liver enzyme sources, pH 6.0 and pH 7.4, NADH or NADPH, 60 or 180 minutes
Protocol: The pork livers were procured from a local butcher (Bordesholm) and the organs were transported directly after slaughter in an ice-cooled 20 mM phosphate buffer (1 mM Na2 EDTA, pH 7.4). For further processing, the liver lobes were first perfused with 50 mM phosphate buffer (1 mM Na2 EDTA, pH 7.4) and washed. The tissue was cut into pieces and run through a commercially available meat grinder. The suspension was diluted an equal volume of phosphate buffer and homogenized using a flow homogenizer. The microsomes and 9000 g supernatant were further obtained by differential ultracentrifugation. For storage, the resulting preparations were aliquotted and frozen at −80° C.
A typical incubation bath of 500 μl (total volume) contained 0.3 mg protein (pork or human liver enzyme source), 0.1 mM (or 1 mM) test compound in 100 mM phosphate buffer (pH 6.0 or pH 7.4) and 1 mM NADH (or NADPH). The incubation was started after a 5-minute pre-incubation of the enzyme and test compound in buffer, adding NADH (or NADPH), and the product was shaken for 60 minutes or 180 minutes at 37° C. in the shaking water batch. The batches were stopped by adding the same volume of acetonitrile, shaken using the vortexer, and frozen at −80° C.
To analyze the samples, they were thawed, shaken 5 minutes using the vortexer, and the protein was separated by means of 5-minute centrifugation at 10000 rpm. […]

[4] = molecular target: T1, peptidylglycine α-amidating monooxygenase (PAM); test: PAM substrate kinetics (KM and Vmax) by HPLC; type: biochemical; conditions: for Vmax value: pH 6.0, 30 minutes incubation, n=2
Protocol: as §1
as §2, with “The incubation was carried out at 37° C. in the shaking water bath for 60 minutes, 100 μl was withdrawn, and the reaction was stopped with 50 μl 10% TFA(aq)/acetonitrile (2:3).” left out
as §3
For the KM and Vmax determination, 100 μl batches were treated at pH 6.0 under the aforementioned conditions, however with the difference that the incubation time was 30 minutes.
HPLC Analysis for Separating O-carboxymethyl benzamidoxime (1) and benzamidoxime (2)
(§4) For the calibration, benzamidoxime was dissolved in eight concentrations of 0.1-500 μM, dissolved in assay buffer (30 mM MES, 1 μM copper(II) acetate, 2 mM sodium ascorbate, 5 mM potassium iodide, pH 6.0), and measured using the aforementioned HPLC method. […]
(§5) For the calibration, N-hydroxy-N′,N″-diphenyl guanidine (4) was dissolved in eight concentrations of 0.1-500 μM, dissolved in assay buffer (30 mM MES, […], 2 mM sodium ascorbate, 5 mM potassium iodide, pH 6.0), and measured using the aforementioned HPLC method.

[5] = substrate: O=C(O)CON=C(Nc1ccccc1)Nc1ccccc1; test: PAM substrate kinetics (KM and Vmax) by HPLC; type: biochemical, rat; conditions: other: pH 6.0, 30 minutes incubation, two independent experiments (n=2), 37.0 °C
Protocol: as §1
as §2, with “The incubation was carried out at 37° C. in the shaking water bath for 60 minutes, 100 μl was withdrawn, and the reaction was stopped with 50 μl 10% TFA(aq)/acetonitrile (2:3). The remaining batch was incubated for another 180 minutes at 37° C. and stopped with 100 μl 10% TFA(aq)/acetonitrile (2:3).” left out
as §4, §5

[6] = substrate: N/C(=N\OCC(=O)O)c1ccccc1; test: PAM substrate kinetics (KM and Vmax) by HPLC; type: biochemical, rat; conditions: other: pH 6.0, 30 minutes incubation, two independent experiments (n=2), 37.0 °C
Protocol: as §1
as §2, with “The incubation was carried out at 37° C. in the shaking water bath for 60 minutes, 100 μl was withdrawn, and the reaction was stopped with 50 μl 10% TFA(aq)/acetonitrile (2:3). The remaining batch was incubated for another 180 minutes at 37° C. and stopped with 100 μl 10% TFA(aq)/acetonitrile (2:3).” left out
as §4, §5

- conversion at the pH optimum of PAM (pH 6.0) in comparison with incubation at pH 7.4 ([2]; colorimetric glyoxylate determination, FIG. 1): considerably higher conversions
- Vmax value [4]: 393±40 nmol min^−1 mg^−1 PAM
Molecule: N/C(=N\OCC(=O)O)c1ccccc1 [compound 1, O-carboxymethyl benzamidoxime]
- detection of O-dealkylated metabolite and its N-reduction product by HPLC [1]: neither benzamidoxime possible prodrug of benzamidine) nor benzamidine were detected
- formation of glyoxylate as the cleavage product of the PAM catalysis [2]: verified in an concentration-dependent manner
- detection of O-dealkylated metabolite and its N-reduction product by HPLC [3]: neither benzamidoxime possible prodrug of benzamidine) nor benzamidine were detected

- conversion rate in comparison with the amidoxime prodrug 1 ([4]; comparison of Vmax): comparable
- Vmax value [4]: 373 ± 53 nmol min⁻¹ mg⁻¹ PAM
Molecule: O=C(O)CON=C(Nc1ccccc1)Nc1ccccc1 [compound 3, N-carboxymethoxy-N′,N″-diphenyl guanidine]
- formation of glyoxylate as the cleavage product of the PAM catalysis [2]: comparable to those of the amidoxime model compound 1

B1: peptidylglycine α-amidating monooxygenase (PAM) (Rattus norvegicus) (protein)
chain: T1 sequence (P14925 36-871 isoform P14925-2 limits assumed)
notes: purchased Unigene Laboratories, Inc. (New Jersey, USA)
- Km [5]: 37 ± 5 µM
- Km [6]: 307 ± 80 µM
